Measurements: publication PMC8213057, “Targeting ALK2: An Open Science Approach to Developing Therapeutics for the Treatment of Diffuse Intrinsic Pontine Glioma” (Journal of Medicinal Chemistry, 2020)

Experiments:
[1] = mouse liver microsomal stability assay; assay type: in vitro ADME; details: male, CD-1, mouse, microsomes, pH 7.4, mouse liver microsomes, 60 min, 37 °C, read-out: MLM % Remaining at 1h
GRK4 = GRK4 (Homo sapiens, UniProt P32298); details: 1 μM; Run 1, Run 2
IR = IR (Homo sapiens, UniProt P06213); details: 1 μM; Run 1, Run 2
Chain of IR (P06213 28-1382): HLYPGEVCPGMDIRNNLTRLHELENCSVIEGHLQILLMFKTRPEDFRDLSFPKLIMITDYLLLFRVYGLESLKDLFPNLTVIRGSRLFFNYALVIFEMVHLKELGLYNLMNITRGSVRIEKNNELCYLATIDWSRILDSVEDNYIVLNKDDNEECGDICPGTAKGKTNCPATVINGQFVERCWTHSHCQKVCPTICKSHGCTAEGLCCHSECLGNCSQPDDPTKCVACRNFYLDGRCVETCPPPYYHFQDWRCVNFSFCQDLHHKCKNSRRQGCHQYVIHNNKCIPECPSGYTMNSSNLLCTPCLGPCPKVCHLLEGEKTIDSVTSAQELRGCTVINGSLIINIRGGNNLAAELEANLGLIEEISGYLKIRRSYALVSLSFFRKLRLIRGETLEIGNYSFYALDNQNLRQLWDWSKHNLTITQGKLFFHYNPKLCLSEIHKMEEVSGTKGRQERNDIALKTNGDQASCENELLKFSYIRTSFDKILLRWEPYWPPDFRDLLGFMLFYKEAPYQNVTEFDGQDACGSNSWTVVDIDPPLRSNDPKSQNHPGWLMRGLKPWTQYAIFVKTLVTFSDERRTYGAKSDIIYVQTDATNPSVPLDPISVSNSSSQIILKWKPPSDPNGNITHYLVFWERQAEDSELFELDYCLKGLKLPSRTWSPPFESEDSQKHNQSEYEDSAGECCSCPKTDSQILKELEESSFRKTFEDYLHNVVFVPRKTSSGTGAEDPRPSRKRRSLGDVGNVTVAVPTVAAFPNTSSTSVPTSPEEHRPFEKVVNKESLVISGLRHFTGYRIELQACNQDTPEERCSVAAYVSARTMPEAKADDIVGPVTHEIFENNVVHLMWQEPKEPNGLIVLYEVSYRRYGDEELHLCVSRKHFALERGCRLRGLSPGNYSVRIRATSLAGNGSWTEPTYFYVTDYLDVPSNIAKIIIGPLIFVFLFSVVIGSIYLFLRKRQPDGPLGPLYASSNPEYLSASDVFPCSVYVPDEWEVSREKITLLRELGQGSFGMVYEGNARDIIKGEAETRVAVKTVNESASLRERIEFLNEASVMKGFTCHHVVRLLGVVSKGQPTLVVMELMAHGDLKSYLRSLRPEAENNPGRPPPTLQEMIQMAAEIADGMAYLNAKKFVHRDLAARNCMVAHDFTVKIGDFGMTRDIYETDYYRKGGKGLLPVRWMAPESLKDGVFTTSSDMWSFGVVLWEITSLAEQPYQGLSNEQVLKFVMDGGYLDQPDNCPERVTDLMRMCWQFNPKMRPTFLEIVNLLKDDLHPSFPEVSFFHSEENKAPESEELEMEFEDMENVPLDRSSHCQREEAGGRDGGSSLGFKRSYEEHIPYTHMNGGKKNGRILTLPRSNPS

MEK1 = MEK1 (Homo sapiens, UniProt Q02750); details: 1 μM; Run 1, Run 2
Chain of MEK1 (Q02750 whole entry): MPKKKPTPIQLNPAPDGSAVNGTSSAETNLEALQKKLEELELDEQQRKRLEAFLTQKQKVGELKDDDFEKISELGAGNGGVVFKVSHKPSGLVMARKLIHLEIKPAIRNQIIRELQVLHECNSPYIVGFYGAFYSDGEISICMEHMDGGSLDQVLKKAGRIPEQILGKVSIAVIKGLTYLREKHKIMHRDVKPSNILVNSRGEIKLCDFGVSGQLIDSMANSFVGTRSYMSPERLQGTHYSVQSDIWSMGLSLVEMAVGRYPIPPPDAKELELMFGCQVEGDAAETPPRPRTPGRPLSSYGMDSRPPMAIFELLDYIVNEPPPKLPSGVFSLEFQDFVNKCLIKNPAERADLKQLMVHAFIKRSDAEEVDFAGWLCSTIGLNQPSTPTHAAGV

NEK11 = target: T1, NEK11 (Homo sapiens, UniProt Q8NG66); details: 1 μM; Run 1, Run 2
T1 sequence (Q8NG66 1-645): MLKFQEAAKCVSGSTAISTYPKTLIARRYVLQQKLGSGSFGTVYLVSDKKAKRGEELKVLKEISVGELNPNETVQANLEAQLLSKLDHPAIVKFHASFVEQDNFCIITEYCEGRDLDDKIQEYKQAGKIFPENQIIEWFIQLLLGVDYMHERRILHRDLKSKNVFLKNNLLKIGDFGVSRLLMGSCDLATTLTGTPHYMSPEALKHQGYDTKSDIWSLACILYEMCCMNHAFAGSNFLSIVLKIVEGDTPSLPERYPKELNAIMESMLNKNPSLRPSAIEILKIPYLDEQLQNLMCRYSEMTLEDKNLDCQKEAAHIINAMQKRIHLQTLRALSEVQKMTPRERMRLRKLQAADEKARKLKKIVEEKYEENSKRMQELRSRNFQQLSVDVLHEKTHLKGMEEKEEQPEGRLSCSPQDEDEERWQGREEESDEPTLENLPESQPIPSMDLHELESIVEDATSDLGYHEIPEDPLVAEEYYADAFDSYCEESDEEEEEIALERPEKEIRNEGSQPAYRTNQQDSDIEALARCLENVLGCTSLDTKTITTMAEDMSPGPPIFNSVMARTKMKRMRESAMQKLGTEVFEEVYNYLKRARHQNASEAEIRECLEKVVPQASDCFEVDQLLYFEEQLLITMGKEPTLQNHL

PKCzeta = target: T2, PKCzeta (Homo sapiens, UniProt Q05513); details: 1 μM; Run 1, Run 2
T2 sequence (Q05513 1-592): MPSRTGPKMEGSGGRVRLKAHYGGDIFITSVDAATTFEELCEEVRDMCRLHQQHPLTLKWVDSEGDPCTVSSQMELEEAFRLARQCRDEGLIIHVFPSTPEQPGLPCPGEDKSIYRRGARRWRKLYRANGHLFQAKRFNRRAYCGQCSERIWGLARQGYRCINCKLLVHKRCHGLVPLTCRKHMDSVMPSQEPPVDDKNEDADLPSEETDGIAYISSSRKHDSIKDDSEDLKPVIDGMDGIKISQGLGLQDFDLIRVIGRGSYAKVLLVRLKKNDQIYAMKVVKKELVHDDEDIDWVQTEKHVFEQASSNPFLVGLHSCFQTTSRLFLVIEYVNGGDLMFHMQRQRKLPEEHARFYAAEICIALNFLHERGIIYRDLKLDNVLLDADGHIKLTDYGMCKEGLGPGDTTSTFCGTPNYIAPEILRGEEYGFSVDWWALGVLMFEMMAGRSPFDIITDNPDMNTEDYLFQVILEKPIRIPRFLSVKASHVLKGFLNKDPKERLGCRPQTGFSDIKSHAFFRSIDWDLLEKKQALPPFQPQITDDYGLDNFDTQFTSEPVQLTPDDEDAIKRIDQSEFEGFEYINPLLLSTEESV

ROCK2 = ROCK2 (Homo sapiens, UniProt O75116); details: 1 μM; Run 1, Run 2
Chain of ROCK2 (O75116 whole entry): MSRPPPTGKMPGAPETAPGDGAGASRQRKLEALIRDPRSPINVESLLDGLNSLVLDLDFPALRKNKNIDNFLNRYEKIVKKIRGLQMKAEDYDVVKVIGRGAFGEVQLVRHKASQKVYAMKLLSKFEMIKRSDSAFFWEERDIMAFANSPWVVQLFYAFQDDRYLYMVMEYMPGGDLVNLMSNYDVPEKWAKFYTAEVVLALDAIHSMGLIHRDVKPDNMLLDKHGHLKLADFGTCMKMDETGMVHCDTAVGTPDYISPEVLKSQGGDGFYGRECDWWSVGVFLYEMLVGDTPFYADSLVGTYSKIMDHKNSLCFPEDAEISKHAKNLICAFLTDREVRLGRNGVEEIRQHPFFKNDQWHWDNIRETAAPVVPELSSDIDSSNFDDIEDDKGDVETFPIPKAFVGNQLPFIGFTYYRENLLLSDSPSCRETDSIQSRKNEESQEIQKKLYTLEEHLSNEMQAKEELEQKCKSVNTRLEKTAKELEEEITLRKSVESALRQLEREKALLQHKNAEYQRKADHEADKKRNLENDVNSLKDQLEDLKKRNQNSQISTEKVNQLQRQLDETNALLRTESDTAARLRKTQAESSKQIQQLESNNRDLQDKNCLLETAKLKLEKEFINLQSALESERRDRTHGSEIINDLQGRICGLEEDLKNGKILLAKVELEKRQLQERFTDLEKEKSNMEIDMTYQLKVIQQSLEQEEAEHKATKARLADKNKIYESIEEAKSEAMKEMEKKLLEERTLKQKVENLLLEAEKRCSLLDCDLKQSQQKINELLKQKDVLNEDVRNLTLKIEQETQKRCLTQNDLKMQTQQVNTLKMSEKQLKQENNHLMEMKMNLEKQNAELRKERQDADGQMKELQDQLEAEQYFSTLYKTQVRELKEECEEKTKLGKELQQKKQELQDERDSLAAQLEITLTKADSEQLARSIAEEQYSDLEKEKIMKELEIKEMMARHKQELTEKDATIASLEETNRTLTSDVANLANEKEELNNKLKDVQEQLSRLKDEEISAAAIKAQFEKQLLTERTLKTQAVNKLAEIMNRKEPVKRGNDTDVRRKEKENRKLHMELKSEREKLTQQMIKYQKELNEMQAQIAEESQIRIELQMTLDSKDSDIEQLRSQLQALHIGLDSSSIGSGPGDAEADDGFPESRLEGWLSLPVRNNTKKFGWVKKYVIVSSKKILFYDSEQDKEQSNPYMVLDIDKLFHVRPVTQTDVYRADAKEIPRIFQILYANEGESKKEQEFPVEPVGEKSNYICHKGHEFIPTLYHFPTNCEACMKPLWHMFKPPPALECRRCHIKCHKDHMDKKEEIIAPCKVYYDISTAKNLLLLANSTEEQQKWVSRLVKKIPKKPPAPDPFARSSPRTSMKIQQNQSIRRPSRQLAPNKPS

CTK/MATK = target: T3, CTK/MATK (Homo sapiens, UniProt P42679); assay: biochemical; details: read-out: % enzyme activity, 1 μM; Run 1, Run 2
T3 sequence (P42679 1-507): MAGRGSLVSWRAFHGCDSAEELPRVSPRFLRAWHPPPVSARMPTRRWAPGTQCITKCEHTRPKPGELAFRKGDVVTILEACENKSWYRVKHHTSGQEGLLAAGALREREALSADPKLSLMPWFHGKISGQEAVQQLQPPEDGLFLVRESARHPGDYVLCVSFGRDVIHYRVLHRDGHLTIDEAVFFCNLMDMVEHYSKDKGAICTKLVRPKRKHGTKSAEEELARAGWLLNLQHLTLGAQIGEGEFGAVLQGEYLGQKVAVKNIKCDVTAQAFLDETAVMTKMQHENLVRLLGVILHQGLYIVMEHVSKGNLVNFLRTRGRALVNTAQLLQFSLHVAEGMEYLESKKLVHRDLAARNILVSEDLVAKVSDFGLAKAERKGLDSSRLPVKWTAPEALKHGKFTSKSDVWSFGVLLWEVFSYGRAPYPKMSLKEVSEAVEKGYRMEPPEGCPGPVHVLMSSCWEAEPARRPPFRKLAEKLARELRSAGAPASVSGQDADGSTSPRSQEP

IRAK4 = target: T4, IRAK4 (Homo sapiens, UniProt Q9NWZ3); assay: biochemical; details: read-out: % enzyme activity, 1 μM; Run 1, Run 2
T4 sequence (Q9NWZ3 1-460): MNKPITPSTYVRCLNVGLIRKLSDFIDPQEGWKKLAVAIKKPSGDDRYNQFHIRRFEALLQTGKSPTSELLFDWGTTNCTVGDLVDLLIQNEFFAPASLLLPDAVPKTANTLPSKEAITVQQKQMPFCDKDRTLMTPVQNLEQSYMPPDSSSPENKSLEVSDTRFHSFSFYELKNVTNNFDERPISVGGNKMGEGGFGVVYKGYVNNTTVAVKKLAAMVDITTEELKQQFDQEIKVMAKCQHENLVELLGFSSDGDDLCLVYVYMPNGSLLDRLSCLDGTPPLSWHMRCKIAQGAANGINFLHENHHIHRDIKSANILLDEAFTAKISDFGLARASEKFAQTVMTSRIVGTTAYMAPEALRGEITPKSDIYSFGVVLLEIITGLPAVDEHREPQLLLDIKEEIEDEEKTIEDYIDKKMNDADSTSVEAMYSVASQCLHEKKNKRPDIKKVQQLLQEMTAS

PKCa = PKCa (Homo sapiens, UniProt P17252); assay: biochemical; details: read-out: % enzyme activity, 1 μM; Run 1, Run 2
Caco-2 cells = assay: Caco-2 permeability assay; details: 5 μM; for Papp_AB: Caco-2, apical to basolateral; for Papp_BA: Caco-2, basolateral to apical

Chain of GRK4 (P32298 whole entry): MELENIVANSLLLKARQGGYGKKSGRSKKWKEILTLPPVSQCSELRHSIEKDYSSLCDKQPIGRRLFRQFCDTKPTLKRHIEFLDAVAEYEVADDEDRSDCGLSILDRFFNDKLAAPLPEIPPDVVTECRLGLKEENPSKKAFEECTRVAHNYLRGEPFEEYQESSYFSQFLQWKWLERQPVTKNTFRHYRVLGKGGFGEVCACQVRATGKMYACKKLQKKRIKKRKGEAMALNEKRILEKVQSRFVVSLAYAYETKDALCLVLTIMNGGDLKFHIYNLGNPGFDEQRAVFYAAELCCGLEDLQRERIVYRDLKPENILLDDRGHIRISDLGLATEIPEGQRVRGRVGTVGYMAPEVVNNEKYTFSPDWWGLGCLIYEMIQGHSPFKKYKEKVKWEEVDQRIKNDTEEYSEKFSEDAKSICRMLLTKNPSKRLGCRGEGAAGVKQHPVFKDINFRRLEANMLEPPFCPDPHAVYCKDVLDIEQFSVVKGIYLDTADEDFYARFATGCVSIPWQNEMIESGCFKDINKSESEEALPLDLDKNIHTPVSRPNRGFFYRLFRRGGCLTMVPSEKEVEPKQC

| SMILES | remaining at 1 h, 1 μM [1] [%] | % enzyme activity (GRK4) [%] | % enzyme activity (IR) [%] | % enzyme activity (MEK1) [%] | % enzyme activity (NEK11) [%] | % enzyme activity (PKCzeta) [%] | % enzyme activity (ROCK2) [%] | remaining activity at 1 µM (CTK/MATK) [%] | remaining activity at 1 µM (IRAK4) [%] | remaining activity at 1 µM (PKCa) [%] | Papp_AB (Caco-2 cells) | Papp_BA (Caco-2 cells) |
| --- | --- | --- | --- | --- | --- | --- | --- | --- | --- | --- | --- | --- |
| COc1cc(-c2cncc(-c3ccc(N4CCN(C)CC4)cc3)c2C)cc(F)c1C(N)=O [Compound 26a, 2-Fluoro-6-methoxy-4-(4-methyl-5-(4-(4-methylpiperazin-1-yl)phenyl)pyridin-3-yl)benzamide] | 54.6 | 79.15 | 100.44 | 97.44 | 85.69 | 90.40 | 115.13 | 95.2 | 78.5 | 89.8 | 5.5 10^-6 cm/s | 16.2 10^-6 cm/s |
| COc1cc(-c2cncc(-c3ccc(N4C[C@@H](C)N(C)[C@@H](C)C4)cc3)c2C)cc(F)c1C(N)=O [Compound 26c, 2-Fluoro-6-methoxy-4-(4-methyl-5-(4-((3R,5S)-3,4,5-trimethylpiperazin-1-yl)phenyl)pyridin-3-yl)benzamide] | 48.7 | 92.15 | 97.15 | 93.40 | 87.79 | 91.43 | 93.98 | 99.2 | 84.9 | 90.3 | 4.3 10^-6 cm/s | 14.5 10^-6 cm/s |
